According to patent publication US8623855B2, “Azetidinone compounds and medical use thereof” (Zhejiang Hisun Pharmaceutical Co., Ltd., priority 2009, dated 2014):
Where two headings read alike, the source gives them in different places.

System: hypercholesterolemia golden hamster model
Assay: In vivo pharmacodynamic screening in hypercholesterolemia model of golden hamster (plasma TC and LDL-C)
Details: for inhibition in vivo at 1 mg/kg / inhibition in vivo at 3 mg/kg / inhibition in vivo at 10 mg/kg: Mesocricetus auratus, po, 168 h; for reduction of plasma TC and LDL-C levels (in words): golden hamster hypercholesterolemic model, significant statistical difference; for effect of lowering cholesterol (screening result in words): in vivo pharmacodynamic screening test, Ezetimibe as positive control; for efficacy compared with the positive control (in words): positive control Ezetimibe
Experimental: 1. Establishment of Hypercholesterolemia Model of Golden Hamster:
The animals were subjected to acclimation feeding for 1 week with free feeding and drinking under a lighting condition of 10 h/14 h. On Day 8, the animals were raised with high fat feed (consisting of 0.5% cholesterol, 20% palm oil, 79.5% basal feed) for 1 week. Then, each animal was anesthetized by ether. After weighing, 0.5 ml blood was obtained from orbital vein, anticoagulated with heparin and centrifuged at 5000 rpm for 10 min. The plasma was collected and the levels of plasma TC (total cholesterol) and LDL-C (low density lipoprotein cholesterol) were determined by automatic biochemical analyzer. Animals with plasma TC of 9-15 mmol/L were selected as model animals (refer to the following reference for the method of animal modeling: Burrier, R. E., Smith, A. A., Mcgregor, D. G, Hoos, L. M., Zilli, D. L., Davis, H. R. The effect of acyl CoA: cholesterol acyltransferase inhibition on the uptake, esterification and secretion of cholesterol by the hamster small intestine. J. Pharm. Exp. Ther., 1995, 272, 156-163).
The animals were grouped according to TC and LDL-C levels and weight with 6 animals per group. Ezetimibe was used as positive control. The animals were intragastrically administered at a volume of 5 ml/kg for 1 week. Each animal was anesthetized by ether. After weighing, 0.5 ml blood was taken from orbital vein, anticoagulated with heparin, and centrifuged at 5000 rpm for 10 min. The plasma was collected and plasma TC (total cholesterol) and LDL-C (low density lipoprotein cholesterol) levels were determined by automatic biochemical analyzer to evaluate the efficacy of the compounds.

[1] = Table 8, read-out: Reducing LDL-C %
[2] = Table 8, read-out: Reducing TC %
[3] = Table 7, 1 mg/kg intragastric, 1 week, plasma
[4] = Table 7, 3 mg/kg intragastric, 1 week, plasma
[5] = Table 10, read-out: Reducing LDL-C %
[6] = Table 10, read-out: Reducing TC %
[7] = Table 9, 1 mg/kg intragastric, 1 week, plasma
[8] = Table 9, 10 mg/kg intragastric, 1 week, plasma
[9] = Table 11, 10 mg/kg intragastric, 1 week, plasma
[10] = Table 11, baseline of group dosed 10 mg/kg

SMILES: Cc1ccc(C(=O)OC/C(=C\C[C@H]2C(=O)N(c3ccc(F)cc3)[C@@H]2c2ccc(O)cc2)c2ccc(F)cc2)cc1 [I-15(Z)]
- inhibition in vivo at 1 mg/kg [1]: 46.5%
- inhibition in vivo at 1 mg/kg [2]: 38.1%
- inhibition in vivo at 3 mg/kg [1]: 70.4%
- inhibition in vivo at 3 mg/kg [2]: 50.8%
- LDL after administration [3]: 1.99 mmol/L
- TC after administration [3]: 6.76 mmol/L
- LDL after administration [4]: 1.44 mmol/L
- TC after administration [4]: 5.37 mmol/L
- reduction of plasma TC and LDL-C levels (in words): can significantly reduce the plasma TC and LDL-C levels
- effect of lowering cholesterol (screening result in words): have the effect of lowering cholesterol
- efficacy compared with the positive control (in words): more similar to the positive control

SMILES: CC(=O)OC/C(=C\C[C@H]1C(=O)N(c2ccc(F)cc2)[C@@H]1c1ccc(OC(=O)c2ccccc2)cc1)c1ccc(F)cc1 [I-16(Z), (3R,4S)-3-[(Z)-4-acetoxy-3-(4-fluorophenyl)-but-2-enyl]-4-(4-benzoyloxyphenyl)-1-(4-fluorophenyl)azetidin-2-one]
- inhibition in vivo at 1 mg/kg [5]: 31.7%
- inhibition in vivo at 1 mg/kg [6]: 37.4%
- inhibition in vivo at 10 mg/kg [5]: 65%
- inhibition in vivo at 10 mg/kg [6]: 60.9%
- LDL after administration [7]: 2.15 mmol/L
- TC after administration [7]: 9.61 mmol/L
- LDL after administration [8]: 1.1 mmol/L
- TC after administration [8]: 6.0 mmol/L
- reduction of plasma TC and LDL-C levels (in words): can significantly reduce the plasma TC and LDL-C levels
- effect of lowering cholesterol (screening result in words): have the effect of lowering cholesterol

SMILES: COc1ccc([C@@H]2[C@@H](C/C=C(\COC(C)=O)c3ccc(F)cc3)C(=O)N2c2ccc(F)cc2)cc1 [I-17(Z), (3R,4S)-3-[(Z)-4-acetoxy-3-(4-fluorophenyl)-but-2-enyl]-1-(4-fluorophenyl)-4-(4-methoxyphenyl)azetidin-2-one]
- inhibition in vivo at 10 mg/kg (Table 12, read-out: Reducing LDL-C %): 60.1%
- inhibition in vivo at 10 mg/kg (Table 12, read-out: Reducing TC %): 59.8%
- LDL-C after administration [9]: 1.19
- TC after administration [9]: 5.09
- LDL-C before administration [10]: 2.98 ± 0.72
- TC before administration [10]: 12.67 ± 1.28
- reduction of plasma TC and LDL-C levels (in words): can significantly reduce the plasma TC and LDL-C levels
- effect of lowering cholesterol (screening result in words): have the effect of lowering cholesterol
- efficacy compared with the positive control (in words): more similar to the positive control
